According to ChEMBL document CHEMBL1146691, “Conformationally-flexible benzamide analogues as dopamine D3 and sigma 2 receptor ligands” (Bioorg Med Chem Lett, 2004):

Tests used:
[1] = target: D(2) dopamine receptor (Rattus norvegicus, UniProt P61169); test: biochemical
[2] = target: D(3) dopamine receptor (Rattus norvegicus, UniProt P19020); test: biochemical
[3] = target: Sigma 2 receptor
[4] = target: T1, D(4) dopamine receptor (Homo sapiens, UniProt P21917)
T1 sequence (P21917 whole entry): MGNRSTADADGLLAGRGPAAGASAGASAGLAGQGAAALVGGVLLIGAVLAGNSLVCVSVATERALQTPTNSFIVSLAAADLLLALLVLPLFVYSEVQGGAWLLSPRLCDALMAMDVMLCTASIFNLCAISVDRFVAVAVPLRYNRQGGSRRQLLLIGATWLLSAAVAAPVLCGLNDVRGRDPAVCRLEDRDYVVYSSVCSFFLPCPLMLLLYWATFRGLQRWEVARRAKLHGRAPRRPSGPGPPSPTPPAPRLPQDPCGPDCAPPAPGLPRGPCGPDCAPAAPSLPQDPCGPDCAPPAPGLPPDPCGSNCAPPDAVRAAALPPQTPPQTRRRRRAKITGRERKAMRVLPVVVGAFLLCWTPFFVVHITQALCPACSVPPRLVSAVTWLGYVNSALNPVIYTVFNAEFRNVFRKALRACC

Chain of D(3) dopamine receptor (P19020 whole entry): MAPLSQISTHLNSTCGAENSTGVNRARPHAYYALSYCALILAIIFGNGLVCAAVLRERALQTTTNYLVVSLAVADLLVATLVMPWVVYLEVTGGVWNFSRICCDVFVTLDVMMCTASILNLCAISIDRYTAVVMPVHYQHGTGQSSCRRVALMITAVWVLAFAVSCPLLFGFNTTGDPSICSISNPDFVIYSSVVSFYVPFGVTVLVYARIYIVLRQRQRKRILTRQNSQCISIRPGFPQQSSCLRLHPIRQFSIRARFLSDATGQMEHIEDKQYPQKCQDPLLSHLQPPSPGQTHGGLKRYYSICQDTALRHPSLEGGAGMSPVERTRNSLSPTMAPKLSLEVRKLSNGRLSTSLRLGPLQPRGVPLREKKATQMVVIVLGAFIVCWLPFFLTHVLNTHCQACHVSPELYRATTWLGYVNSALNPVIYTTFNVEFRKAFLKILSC
Chain of D(2) dopamine receptor (P61169 whole entry): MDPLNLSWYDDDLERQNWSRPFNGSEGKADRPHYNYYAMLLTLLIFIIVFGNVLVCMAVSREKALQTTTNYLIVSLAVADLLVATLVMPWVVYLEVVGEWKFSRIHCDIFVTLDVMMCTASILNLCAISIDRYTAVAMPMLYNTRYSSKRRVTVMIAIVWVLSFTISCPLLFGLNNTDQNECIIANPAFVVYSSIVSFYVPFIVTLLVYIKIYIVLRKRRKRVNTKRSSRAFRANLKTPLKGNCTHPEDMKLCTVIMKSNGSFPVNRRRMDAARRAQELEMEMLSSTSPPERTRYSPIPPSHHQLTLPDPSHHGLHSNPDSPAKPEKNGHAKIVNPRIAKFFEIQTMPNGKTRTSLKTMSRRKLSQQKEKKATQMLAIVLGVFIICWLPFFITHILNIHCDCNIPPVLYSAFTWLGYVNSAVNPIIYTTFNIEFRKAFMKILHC

| Compound | Ki [1] [nM] | Ki [2] [nM] | Ki [3] [nM] | Ki [4] [nM] |
| --- | --- | --- | --- | --- |
| COc1c(C(=O)NCCN2CCN(c3cccc(Cl)c3Cl)CC2)cc(Br)c2ccccc12 | > 10000 | 8 |  |  |
| COc1cc2c(cc1OC)CN(CCCCNC(=O)c1cc(Br)cc(OC)c1OC)CC2 |  |  | 8.2 |  |
| O=C(NCCCCN1CCN(c2cccc(Cl)c2Cl)CC1)c1ccc2c(c1)Cc1ccccc1-2 | 217 | 1.4 |  |  |
| O=C(NCCCCN1CCN(c2cccc(Cl)c2Cl)CC1)c1cccc2c1-c1ccccc1C2=O | 89 | 1.4 |  |  |
| COc1cc(Br)cc(-c2ccc(CN3CCc4ccccc4C3)[nH]2)c1OC | 30 | 3.8 |  |  |
| COc1cc(Br)cc(C(=O)NCCN2CCc3ccccc3C2)c1OC |  |  | 716 | 47.9 |
| COc1c(C(=O)NC[C@H]2CCCN2C2CCCCC2)cc(Br)c2ccccc12 |  |  | 25 |  |
| COc1cc(Br)cc(C(=O)NCCCCN2CCN(c3cccc(Cl)c3Cl)CC2)c1OC |  |  | 75 | 800 |
| COc1c(C(=O)NCCN2CCc3ccccc3C2)cc(Br)c2ccccc12 |  |  | 47.7 |  |
| COc1cc2c(cc1OC)CN(CCCCNC(=O)c1cc(Br)c3ccccc3c1OC)CC2 |  |  | 17.6 |  |
| COc1cc2c(cc1OC)CN(CCNC(=O)c1cc(Br)c3ccccc3c1OC)CC2 |  |  | 21.2 |  |
| COc1cc2c(cc1OC)CN(Cc1ccc(-c3cc(Br)cc(OC)c3OC)[nH]1)CC2 | 33 | 3.9 |  |  |
| COc1c(C(=O)NC2CCN(C3C4CC5CC(C4)CC3C5)C2)cc(Br)c2ccccc12 (stereo unspecified) |  | 0.4 | 70 |  |
| COc1cc2c(cc1OC)CN(CCNC(=O)c1cc(Br)cc(OC)c1OC)CC2 |  |  | 16.4 | 265 |
| COc1cc2c(cc1OC)CN(CCNC(=O)c1cc(C)ccc1OC)CC2 |  |  | 13.3 |  |
| COc1cc2c(cc1OC)CN(CCNC(=O)c1cc(Br)ccc1OC)CC2 |  |  | 12.4 |  |
| COc1ccc(Br)cc1C(=O)NCCN1CCc2ccccc2C1 |  |  | 89.4 |  |
